This note sets out measurements from PubChem BioAssay AID1902 (Broad Institute, 2009).

The source made the active and inactive calls.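 The calls were made as follows: active = EC50 no more than a set limit of log units above the highest dose; inactive = the rest.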

The target of the test is S. pyogenes SKKanGAS, kanamycin survival, BacTiterGlo, 6 h. The experiment in a line: SKKanGAS survival reduction under kanamycin, dose response, streptokinase promoter inhibitor project, SKKanGAS strain, luminescence, dose confirmation (AID 1902).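 Also: lower survival reflects blocked streptokinase promoter driving kanamycin resistance gene.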

As to `Cc1cc(N2C(=O)C(O)=C(C(=O)c3cc4ccccc4o3)C2c2ccc(Br)cc2)no1` (centres undefined), the EC50 is 1.24 µM. Take `O=C1c2ccccc2CC1(Cc1ccccc1)Cc1ccccc1`: the EC50 was 4.35 µM. Take `Cc1nnc(SCC2=C(C(=O)O)N3C(=O)C(NC(=O)c4cc(F)c(F)cc4Cl)C3SC2)s1` (centres undefined): the EC50 is 0.535 µM.

On to `C[C@@]12CCC=C[C@H]1[C@H](c1ccc3ccccc3c1Br)N(Cc1ccccc1)C2=O`, for which the EC50 is 3.63 µM. The figure for `CCC1CCCCN1S(=O)(=O)c1ccc(NC(=O)c2nc(S(C)(=O)=O)ncc2Cl)cc1` (centres undefined) is 9.42 µM; for `O=C(CN1C(=O)COc2ccc(S(=O)(=O)N3CCCCC3)cc21)NCc1ccc(F)cc1` it is > 15 µM (inactive). With `COc1ccc(C2CC(c3ccccc3)=NN2C(=O)c2cccs2)cc1` (centres undefined) the figure was 7.84 µM; with `CC(C)(CN=C1NS(=O)(=O)c2ccccc21)CNC(=O)c1ccccc1`, > 15 µM (inactive). Take `COc1cccc(C(=O)Nc2nnc(-c3ccc(F)cc3)o2)c1`: the EC50 is 1.28 µM. For the compound `O=C1Nc2ccccc2S/C1=C/Nc1cccc(Cl)c1`, the EC50 is 6.77 µM. With `N#C/C(=C(/O)COc1ccccc1)c1nc2ccccc2s1` the figure was 14.5 µM.

For the compound `COc1ccc(Oc2nc(-c3ccccn3)nc3ccccc23)cc1`, the EC50 is 6.49 µM. In the case of `CCc1nnc(NC(=O)c2cccc(C(=O)Nc3nnc(CC)s3)n2)s1`, the EC50 is 0.961 µM.

On to `O=C(O)c1ccc(N/N=C/c2ccc(-c3cccc(Cl)c3)o2)cc1`, for which the EC50 was 6.17 µM. Consider `CCCCc1nc(N2CCN(C(=O)c3ccco3)CC2)c(C#N)c2c1CCCC2`, for which the EC50 was 6.45 µM.

Turning to `COC(=O)c1cccc(NC(=S)NCc2ccc(Cl)cc2)c1`, the EC50 was 9.26 µM. For the compound `O=C(Nc1ccc(F)cc1)N1CCCCCC1`, the EC50 is > 15 µM (inactive).

Regarding `O=C(Nc1cccc(-c2nnc(-c3ccccc3)o2)c1)c1ccc(Br)o1`, the EC50 is 8.48 µM. As to `CC(C)C(Sc1nc(-c2ccccc2)cc(-c2ccccc2)c1C#N)C(=O)O` (centres undefined), the EC50 is 2.04 µM. With `COc1cc([N+](=O)[O-])cc(/C=N\NC(=O)C2COc3ccccc3O2)c1O` (centres undefined) the figure was 3.61 µM; with `CN(C(=O)Cc1c(C(=O)O)n(C)c2ccccc12)c1ccc(F)cc1`, > 15 µM (inactive). The figure for `COc1ccc(Br)cc1[C@H]1[C@@H]2C=CCC[C@@]2(C)C(=O)N1Cc1ccccc1` is 4.92 µM.

With `Cc1nc2ccccc2c(=O)n1/N=C/c1ccc2ccccc2c1O`, the EC50 was > 15 µM (inactive).

Regarding `Cc1ccccc1-c1cc(-c2ccccc2O)n[nH]1`, the EC50 is 12.3 µM. In the case of `CCCCC(=O)NC(c1ccco1)c1cc(Cl)c2cccnc2c1O` (centres undefined), the EC50 is 2.03 µM.

For the compound `COc1cc2c(C(=O)N3CCN(c4ccccc4C)CC3)c(C)oc2cc1Br`, the EC50 was 10.3 µM. As to `COc1ccccc1N=Nc1ccc(O)c2ncccc12`, the EC50 was 0.665 µM.

For `N=c1c(-c2nc3ccccc3[nH]2)cc(C(=O)c2cccs2)nn1-c1ccccc1`, the EC50 was 1.89 µM. Turning to `O=C(NNC(=S)Nc1ccc(Cl)c(Cl)c1)c1ccccn1`, the EC50 is 1.66 µM. Consider `CCCN(CCC)S(=O)(=O)c1ccc(C(=O)Nc2nnc(-c3cc(OC)cc(OC)c3)o2)cc1`, for which the EC50 was 0.192 µM.

On to `Cc1cc(C(=O)N/N=C/c2ccc([N+](=O)[O-])s2)n[nH]1`, for which the EC50 is 2.39 µM. With `COc1ccc(/C=N/n2c(-c3cccs3)n[nH]c2=S)cc1` the figure was 14.3 µM; with `CN1CCN(C2=Cc3cc(Cl)ccc3Sc3cc(F)ccc32)CC1`, 5.16 µM; with `CC(C(=O)NC1C(=O)N2C(C(=O)O)=C(CSc3nnnn3C)CSC12)n1cc(Br)cn1` (centres undefined), below 0.06 µM. `O=C(/C=C/c1ccccc1)NC(NC(=S)Nc1cc(Cl)ccc1Cl)C(Cl)(Cl)Cl` (centres undefined): the EC50 was 0.55 µM. As for `CCCCCn1c(=O)c(C(=O)Nc2cnccn2)c(O)c2ccccc21`, the EC50 was 3.18 µM. For `C/C(=N\NC(=O)c1cc2ccccc2cc1O)c1ccc2c(c1)OCO2`, the EC50 is 2.18 µM. On to `Cc1nn(Cc2ccc(C(=O)Nc3nc4c(C)cccc4s3)o2)c(C)c1Br`, for which the EC50 is 2.85 µM. With `O=C(NNC(=S)NC(=O)c1ccccc1)c1ccc([N+](=O)[O-])cc1` the figure was 3.23 µM; with `O=C(Nc1ccc(Cl)c(Cl)c1)O/N=C/c1ccncc1`, 2.38 µM; with `COc1cc(Cc2cc(N)nc(N)n2)cc(OC)c1OC`, 4.31 µM. Regarding `CC(C)OC(=O)c1c(NS(=O)(=O)c2ccccc2)sc2c1CCCC2`, the EC50 is 3.88 µM. Take `Cc1cc(C(=O)Nc2nc(-c3ccccn3)cs2)ccc1[N+](=O)[O-]`: the EC50 is 1.69 µM.

For `O=C(N/N=C/c1cc(O)ccc1Br)c1cccnc1`, the EC50 was 2.88 µM. With `CC(C)Cn1c(=O)c(C(=O)Nc2ccccc2S(N)(=O)=O)c(O)c2ccccc21` the figure was 8.58 µM; with `O=c1c2c(nc(NCCO)n1CC1CCCCC1)-c1ccccc1CC21CCCC1`, 4.16 µM; with `Cc1nc(N2CCC(C)CC2)c2c(C)c(C(=O)Nc3ccccc3C(F)(F)F)sc2n1`, 6.04 µM.

As to `Cc1ccc(C)c(C(=O)COC(=O)c2cc(Cl)nc3ccccc23)c1`, the EC50 was 10.9 µM.

As to `O=C(NNc1nc(-c2ccc(F)cc2)cs1)c1ccccc1`, the EC50 is 2.17 µM.

As for `Cc1nc(-c2ccc(S(=O)(=O)Nc3ccc(Br)cc3Cl)s2)cs1`, the EC50 is 5.14 µM. The figure for `CCCc1cc(=O)n2[nH]c(C)c(-c3ccc(Cl)cc3)c2n1` is 5.81 µM. Regarding `COc1ccccc1Oc1cn[nH]c1-c1ccc(OCC(=O)NN)cc1O`, the EC50 is > 15 µM (inactive). For `CCOC(=O)/C(=N\Nc1ccc(Cl)cc1)c1csc(Nc2ccccc2)n1`, the EC50 is 1.77 µM. For the compound `O=C(NC(=S)NNC(=O)c1cccs1)c1ccco1`, the EC50 was 6.22 µM. With `CCn1c(=O)n(CC)c2cc(N3CCCC3)c(NC(=O)c3cc(Br)ccc3OC)cc21` the figure was 4.28 µM; with `COc1cccc(N2CCN(c3ncnc4c3[nH]c3ccc(F)cc34)CC2C)c1` (centres undefined), 6.85 µM.

With `COc1cc(NC(=O)c2cc3nc(-c4ccccc4)cc(-c4ccccc4)n3n2)cc(OC)c1OC`, the EC50 was 10.1 µM. Regarding `CC1CC(C)CN(S(=O)(=O)c2ccc(C(=O)Nc3nnc(C4CC4)o3)cc2)C1` (centres undefined), the EC50 is 1.03 µM.

Regarding `Cc1cc(N2CCN(c3ccccc3Cl)CC2)n2cc(-c3ccccc3)nc2n1`, the EC50 is 6.63 µM. Turning to `COc1ccc(OC)c(N=Cc2c(O)n(Cc3ccccc3)c(=S)[nH]c2=O)c1`, the EC50 was > 15 µM (inactive). The figure for `CCOC(=O)c1cnc(-n2nc(C)cc2C)nc1NCc1ccccc1` is 4.14 µM.

On to `O=C(N/N=C\c1c(O)ccc2ccccc12)c1cncc(Br)c1`, for which the EC50 is 1.31 µM. In the case of `Cc1cc(NC(=O)c2c(F)cccc2Cl)n(-c2nc3ccccc3[nH]2)n1`, the EC50 is 8.04 µM.

`Cc1cc(COC(=O)C2N3C(=O)[C@@H](NC(=O)COc4ccccc4)[C@H]3SC2(C)C)on1` (some centres undefined): the EC50 is 0.119 µM. On to `Cc1cccc(NC(=O)c2sc(Cl)nc2-c2ccccc2)c1`, for which the EC50 was 11.2 µM. `CC1CC(C)CN(Cc2nc(N)nc(Nc3ccc4ccccc4c3)n2)C1` (centres undefined): the EC50 was 1.41 µM. As for `COc1ccc(-c2c/c(=N\c3nc(-c4ccccc4)c(C)s3)c3ccccc3o2)cc1O`, the EC50 is 11 µM. On to `O=S(=O)(Nc1nccs1)c1ccc(Nc2nnc(-c3ccccc3)c3ccccc23)cc1`, for which the EC50 is 2.51 µM.

Turning to `CCCn1c(=O)c(C(=O)Nc2ncccc2C)c(O)c2ccccc21`, the EC50 was 5.16 µM. In the case of `O=c1[nH]c(CN2CC=C(c3ccccc3)CC2)nc2scc(-c3ccccc3)c12`, the EC50 is 3.17 µM. Take `O=C1CN(/N=C/c2ccc([N+](=O)[O-])o2)C(=O)N1`: the EC50 was 5.83 µM.

Take `N#Cc1ccc(NC(=O)Nc2ccc(Cl)cc2)cc1`: the EC50 is 6.03 µM.

Consider `O=C(O)c1cc(-c2ccc(-c3c(-c4ccc5c(c4)OCO5)noc3-c3ccsc3)cc2)nc2ccccc12`, for which the EC50 is 1.84 µM.

For `Clc1ccc(COn2c(-c3ccc(Cl)cc3)nc3ccccc32)cc1`, the EC50 was 6.12 µM.

With `O=c1[nH]c(NNC(=S)NC2CCCCC2)nc2c1C1(CCCC1)Cc1ccccc1-2`, the EC50 was 1.35 µM. For `Cc1cn(-c2cc(C(=O)Nc3ccc(C)c(NC(=O)C(=O)c4c[nH]c5ccccc45)c3)cc(C(F)(F)F)c2)cn1`, the EC50 was 2.78 µM. Consider `CC(C)Nc1cc(C(C)(C)C)nc2c(-c3ccccc3)cnn12`, for which the EC50 was 4.42 µM. Regarding `CC(=O)NC(c1ccc(C)cc1)c1cc(Cl)c2cccnc2c1O` (centres undefined), the EC50 was 1.42 µM. With `Cc1ccc2nc(-c3ccc(NS(=O)(=O)c4ccc(F)cc4)cc3)sc2c1` the figure was 3.31 µM; with `Oc1[nH]c2ccccc2c1N=NC(=S)NCCc1ccccc1`, 4.39 µM; with `O=C(CNc1ccccc1)N/N=C/c1c(O)ccc2ccccc12`, 0.74 µM. As for `Oc1ccccc1N=Nc1ccccc1O`, the concentration for a half-maximal effect (EC50) was 0.961 µM. As to `COc1ccc(NP(=O)(Oc2ccc(Cl)cc2)Oc2ccc(Cl)cc2)cc1OC`, the EC50 was 7.25 µM. Consider `CC(C)C[C@H](NC(=O)c1nc[nH]c1C(=O)N[C@@H](CC(C)C)C(=O)OC(C)(C)C)C(=O)OCc1ccccc1`, for which the EC50 is 1.45 µM. `CCCCSc1nc(C)cc(SCC(=O)N/N=C/c2cccc(OC)c2O)n1`: the EC50 is 2.14 µM. Consider `CC(=O)O[C@H]1CC[C@]2(C)[C@H]3CC=C4[C@@H]5[C@@H](C)[C@H](C)CC[C@]5(C(=O)O)CC[C@@]4(C)[C@]3(C)CC[C@H]2C1(C)C`, for which the EC50 was 2.83 µM. With `COC(=O)c1ccc(Cl)c(NC(=O)CSc2nnc(-c3ccncc3)o2)c1`, the EC50 was > 15 µM (inactive).

For the compound `Cc1cc(=O)oc2cc(OCC(=O)N3CCN(C(=O)C4COc5ccccc5O4)CC3)ccc12` (centres undefined), the EC50 was 3.16 µM. In the case of `COc1ccc(C(=O)NC(=S)NNC(=O)c2ccco2)cc1`, the EC50 is 4.48 µM. With `CC(=O)OCC1=C(C(=O)O)N2C(=O)C(NC(=O)c3ccc(F)cc3)C2SC1` (centres undefined) the figure was 2.9 µM; with `CCn1c(=O)c(C(=O)NNC(=O)c2ccccc2F)c(O)c2ccccc21`, 3.17 µM.

In the case of `COc1ccc(-c2n[nH]c(C)c2-c2ccc(Cl)cc2)c(O)c1`, the EC50 was 6.52 µM. Take `CCc1nnc(NS(=O)(=O)c2ccc(NC(=S)NC(=O)/C=C/c3ccc(C(C)C)cc3)cc2)s1`: the EC50 was 3.11 µM. Regarding `CCC1CCCCN1S(=O)(=O)c1ccc(C(=O)Nc2nnc(C3CC3)o2)cc1` (centres undefined), the EC50 was 2.23 µM.

As a reminder, the EC50 is the concentration giving half of the maximal effect.
